Assay results taken from patent EP0194548A2, “Sulfonylaminoethyl compounds, medicines containing these compounds and process for their preparation” (Dr. Karl Thomae GmbH, priority 1985, dated 1986).

Assays:
Mäusen [1] = assay: Orientating acute toxicity after a single oral dose; format: in vivo; settings: mice, groups of 10, observation time 14 days
Source text: Die akute Toxizität der zu untersuchenden Substanzen wurde orientierend an Gruppen von je 10 Mäusen nach oraler Gabe einer Einzeldosis bestimmt (Beobachtungszeit 14 Tage): […]

[2] = system: Thrombozytenaggregation in plättchenreichem Plasma; assay: Collagen-induced platelet aggregation (method of BORN and GROSS) in platelet-rich plasma; format: cell-based, Versuchspersonen; settings: 10 min, plasma incubated 10 min with substance at 37°C, 50% change of optical density
Source text: Die Thrombozytenaggregation wird nach der Methode von BORN und GROSS (J. Physiol. 170, 397 (1964)) in plättchenreichem Plasma gesunder Versuchspersonen gemessen. Zur Gerinnungshemmung wird das Blut mit […] 3,14 % im Volumenverhältnis 1:10 versetzt
Collagen-induzierte Aggregation
Der Verlauf der Abnahme der optischen Dichte der Plättchensuspension wird nach Zugabe der aggregationsauslösenden Substanz photometrisch gemessen und registriert. Aus dem Neigungswinkel der Dichtekurve wird auf die Aggregationsgeschwindigkeit geschlossen. Der Punkt der Kurve, bei dem die größte Lichtdurchlässigkeit vorliegt, dient zur Berechnung der "optical dens^ity".
Die Collagen-Menge wird möglichst gering gewählt, aber doch so, daß sich eine irreversibel verlaufende Reaktionskurve ergibt. Verwendet wird das handelsübliche Collagen der Firma Hormonchemie, München.
Vor der Collagen-Zugabe wird das Plasma jeweils 10 Minuten mit der Substanz bei 37°C inkubiert.
Aus den erhaltenen Meßzahlen wird graphisch eine EC50 berechnet, die sich auf eine 50%ige Änderung der "optical density" im Sinne einer Aggregationshemmung bezieht.

Mäusen [3] = assay: Prolongation of bleeding time (tail tip cut) after oral dosing; format: in vivo; settings: conscious mice, 10 mg/kg p.o., 1 hour after dosing, 5 animals per test, versus controls without substance
Method: Da im Falle einer Verletzung die erste rasche Blutstillung durch Thrombozyten geschieht, läßt sich beim Setzen einer standardisierten Verletzung die Funktion der Thrombozylen mit Hilfe der Messung der Blutungszeit gut bestimmen. Die normale Blutungszeit beträgt beim Menschen etwa 1 bis 3 min., setzt aber leistungsfähige und in genügender Zahl vorhandene Thrombozyten voraus. Bei einer normalen Thrombozytenzahl weist also eine verlängerte Blutungszeit auf eine gestörte Funktion der Thrombozyten hin. Wir finden dies z.B. bei einigen angeborenen Thrombozytenfunktionsstörungen. Will man auf der anderen Seite die Neigung zu spontanem Zusammenballen der Thrombozyten mit der Folge von Gefäßverschlüssen im arteriellen System durch Medikamente verhindern, so muß folglich bei einer erfolgreichen thrombozytenwirksamen Therapie die Blutungszeit unter Substanzeinfluß verlängert werden. Bei einer thrombozytenwirksamen Substanz ist also eine Verlängerung der Blutungszeit und - da das plasmatische Gerinnungssystem ja nicht berührt wird -eine normale Blutgerinnungszeit zu erwarten.
Zur Bestimmung der Blutungszeit wurden die zu untersuchenden Substanzen wachen Mäusen in einer Dosis von 10 mg/kg p.o. appliziert. Nach einer Stunde wurde von der Schwanzspitze jedes Tieres ca. 0,5 mm abgeschnitten und das austretende Blut in Abständen von 30 Sekunden bis zum Sistieren der Blutung vorsichtig mit einem Filterpapier abgetupft. Die Zahl der so erhaltenen Bluttropfen ergibt ein Maß für die Blutungszeit (5 Tiere pro Versuch). Die folgenden Zahlenangaben bedeuten Prozent-Verlängerung gegenüber Kontrollen ohne Substanzgabe: […]

Compound	Orientierende akute Toxizität (Mäusen [1]; single oral dose 1.000 mg)	EC50 [2] [nM]	Verlängerung der Blutungszeit in % nach 1 Stunde (Mäusen [3]) [%]	Orientierende akute Toxizität (Mäusen [1]; single oral dose 250 mg)
O=C(O)CCC(=O)c1ccc(CCNS(=O)(=O)c2ccc(Cl)cc2)cc1 [Substanz A, 3-[4-(2-(4-Chlorbenzolsulfonyl)-aminoäthyl)-benzoyl]-propionsäure]	1.000 mg (0 von 10 Tieren gestorben)	4000	108	–
COCCOC(=O)CCC(=O)c1ccc(CCNS(=O)(=O)c2ccccc2)cc1 [Substanz B, 3-[4-(2-Benzolsulfonylaminoäthyl)-benzoyl]-propionsäure-ß-methoxyäthylester]	1.000 mg (0 von 10 Tieren gestorben)	> 10000	110	–
O=C1CCC(c2ccc(CCNS(=O)(=O)c3ccccc3)cc2)=NN1 [Substanz C, 6-[4-(2-Benzoylsulfonylaminoäthyl)-phenyl]-4,5-dihydro-pyridazin-(2H)-3-on]	1.000 mg (0 von 10 Tieren gestorben)	3300	145	–
Cc1ccc(S(=O)(=O)NCCc2ccc(C3=NNC(=O)CC3C)cc2)cc1 (stereo not drawn) [Substanz D, 6-[4-(2-(p-Toluolsulfonyl)-aminoäthyl)-phenyl]-5-methyl-4,5-dihydro-pyridazin-(2H)-3-on]	1.000 mg (0 von 10 Tieren gestorben)	2400	187	–
O=C1CCC(c2ccc(OCCNS(=O)(=O)c3ccccc3)cc2)=NN1 [Substanz E, 6-[4-(2-Benzolsulfonylaminoäthoxy)-phenyl]-4,5-dihydro-pyridazin-(2H)-3-on]	1.000 mg (0 von 10 Tieren gestorben)	3000	233	–
O=C(O)CCC(=O)c1ccc(CCNS(=O)(=O)c2ccccc2)cc1 [Substanz F, 3-[4-(2-Benzolsulfonylamino-äthyl)-benzoyl]-propionsäure]	–	3000	>266	250 mg (0 von 10 Tieren gestorben)
